These results are taken from PubChem BioAssay AID330 (DTP/NCI, 2004).

“And” between values parts separate entries of the source, which are not always exact repeats. Equal entries are not always repeated. Inconclusive results and toxic doses are left out.

This test has as its system P388 leukemia ip, CD2F1 mice, survival T/C. Briefly: NCI In Vivo Anticancer Drug Screen. Data for tumor model P388 Leukemia (intraperitoneal) in CD2F1 (CDF1) mice. Particulars: endpoint: median survival time, higher = longer survival. In short, it runs like this: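 Mice carrying the transplanted tumor received test compound or vehicle. Survival was recorded in each group, and the value is the treated-group measurement divided by that of the vehicle-treated control group.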

[1] abbreviates: dose: 50.0 mg/kg/injection, schedule: Q01DX009 (ip), vehicle: saline with Tween-80.
The mark [2] stands for this setting: dose: 100.0 mg/kg/injection, schedule: Q01DX009 (ip), vehicle: saline with Tween-80.
Setting [3] is: dose: 60.0 mg/kg/injection, schedule: Q01DX005 (ip), vehicle: saline with Tween-80.
[4] abbreviates: dose: 120.0 mg/kg/injection, schedule: Q01DX005 (ip), vehicle: saline with Tween-80.
The mark [5] stands for this setting: dose: 240.0 mg/kg/injection, schedule: Q01DX005 (ip), vehicle: saline with Tween-80.
Setting [6] is: dose: 200.0 mg/kg/injection, schedule: Q01DX009 (ip), vehicle: saline with Tween-80.
Where [7] appears, read: dose: 25.0 mg/kg/injection, schedule: Q04DX003 (ip), vehicle: Klucel (hydroxypropylcellulose) (HPC).
[8] abbreviates: dose: 50.0 mg/kg/injection, schedule: Q01DX005 (ip), vehicle: saline with Tween-80.
[9] abbreviates: dose: 100.0 mg/kg/injection, schedule: Q01DX005 (ip), vehicle: saline with Tween-80.
Where [10] appears, read: dose: 200.0 mg/kg/injection, schedule: Q01DX005 (ip), vehicle: saline with Tween-80.

`C=C1CC/C=C(/C)C(=O)C(OC(C)=O)C2C1CC2(C)C` (configuration not stated): the T/C is 105 % of control (dose: 1.75 mg/kg/injection, schedule: Q01DX009 (ip), vehicle: saline + Tween-80 + alcohol); 105 % of control and 111 % of control (dose: 1.75 mg/kg/injection, schedule: Q01DX009 (ip), vehicle: saline + alcohol); 102 % of control (dose: 3.5 mg/kg/injection, schedule: Q01DX009 (ip), vehicle: saline + Tween-80 + alcohol); 102 % of control and 103 % of control and 114 % of control (dose: 3.5 mg/kg/injection, schedule: Q01DX009 (ip), vehicle: saline + alcohol); 111 % of control (dose: 7.0 mg/kg/injection, schedule: Q01DX009 (ip), vehicle: saline + Tween-80 + alcohol); 101 % of control and 105 % of control and 114 % of control (dose: 7.0 mg/kg/injection, schedule: Q01DX009 (ip), vehicle: saline + alcohol). The T/C (dose: 14.0 mg/kg/injection, schedule: Q01DX009 (ip), vehicle: saline + Tween-80 + alcohol) was 116 % of control; the T/C (dose: 14.0 mg/kg/injection, schedule: Q01DX009 (ip), vehicle: saline + alcohol) was 111 % of control and 113 % of control and 114 % of control; the T/C (dose: 28.0 mg/kg/injection, schedule: Q01DX009 (ip), vehicle: saline + Tween-80 + alcohol) is 120 % of control; the T/C (dose: 28.0 mg/kg/injection, schedule: Q01DX009 (ip), vehicle: saline + alcohol) is 111 % of control and 115 % of control and 121 % of control; the T/C (dose: 56.0 mg/kg/injection, schedule: Q01DX009 (ip), vehicle: saline + Tween-80 + alcohol) was 116 % of control.
`CN(C)C(=O)c1cccc(COc2ccc([N+](=O)[O-])cc2Cl)c1`: the T/C is 110 % of control under setting [1] and 110 % of control under setting [2].
With `CCCCCC(Nc1nncs1)Nc1nncs1`, the T/C reads like this: under setting [3], 94 % of control; under setting [4], 96 % of control; under setting [5], 105 % of control.
As to `CC1CC(C)(C)N=C(Cc2ccccc2)O1` (configuration not stated), the T/C is 100 % of control under setting [1], 101 % of control under setting [2] and 89 % of control under setting [6].
For the compound `CCOC(=O)c1cc([N+](=O)[O-])c(C)n1C`, the T/C is, setting by setting: under setting [1], 98 % of control; under setting [2], 102 % of control; under setting [6], 96 % of control.
As to `O=[N+]([O-])c1cccc(C2=NON(c3ccccn3)C3C=CC=CN23)c1` (configuration not stated), the T/C by setting is: under setting [3], 94 % of control; under setting [4], 90 % of control; under setting [5], 92 % of control.
On to `COc1cccc2c1C(=O)c1c(O)c3c(c(O)c1C2=O)C[C@@](O)(C(=O)CO)C[C@@H]3OC1CC([N+](C)(C)C)C(O)C(C)O1` (some centres not stated), for which the T/C runs as follows: (dose: 3.89 mg/kg/injection, schedule: Q04DX003 (ip), vehicle: water) 105 % of control; (dose: 6.48 mg/kg/injection, schedule: Q04DX003 (ip), vehicle: water) 109 % of control; (dose: 12.5 mg/kg/injection, schedule: Q01DX001 (ip), vehicle: water) 112 % of control; (dose: 12.5 mg/kg/injection, schedule: Q01DX009 (ip), vehicle: water) 160 % of control and 187 % of control; (dose: 30.0 mg/kg/injection, schedule: Q04DX003 (ip), vehicle: water) 150 % of control.
Take `O=C1C2C3CC(c4ccccc43)C2N1S(=O)(=O)Cl` (configuration not stated): the T/C by setting is: under setting [3], 107 % of control; under setting [4], 106 % of control; under setting [5], 114 % of control.
As to `N#CN=[N+]([O-])c1cccc(Cl)c1`, the T/C reads like this: (dose: 3.12 mg/kg/injection, schedule: Q01DX009 (ip), vehicle: Klucel (hydroxypropylcellulose) (HPC)) 101 % of control; (dose: 6.25 mg/kg/injection, schedule: Q01DX009 (ip), vehicle: Klucel (hydroxypropylcellulose) (HPC)) 108 % of control; (dose: 6.25 mg/kg/injection, schedule: Q04DX003 (ip), vehicle: Klucel (hydroxypropylcellulose) (HPC)) 101 % of control; (dose: 12.5 mg/kg/injection, schedule: Q01DX009 (ip), vehicle: Klucel (hydroxypropylcellulose) (HPC)) 98 % of control; (dose: 12.5 mg/kg/injection, schedule: Q04DX003 (ip), vehicle: Klucel (hydroxypropylcellulose) (HPC)) 104 % of control; under setting [7], 91 % of control.
Turning to `C(CCC[Si]12OCCN(CCO1)CCO2)CC[Si]12OCCN(CCO1)CCO2`, the T/C is 102 % of control (dose: 50.0 mg/kg/injection, schedule: Q01DX005 (ip), vehicle: Klucel (hydroxypropylcellulose) (HPC)); 93 % of control (dose: 100.0 mg/kg/injection, schedule: Q01DX005 (ip), vehicle: Klucel (hydroxypropylcellulose) (HPC)); 91 % of control (dose: 200.0 mg/kg/injection, schedule: Q01DX005 (ip), vehicle: Klucel (hydroxypropylcellulose) (HPC)).
`COc1ccc2cc(O)ccc2c1`: the T/C runs as follows: under setting [2], 113 % of control; under setting [6], 100 % of control; (dose: 400.0 mg/kg/injection, schedule: Q01DX009 (ip), vehicle: saline with Tween-80) 90 % of control.
As for `O=C(O)/C=N/NP(=O)(Oc1ccccc1)Oc1ccccc1`, the T/C (dose: 25.0 mg/kg/injection, schedule: Q01DX009 (ip), vehicle: distilled water + Tween-80) was 99 % of control; the T/C (dose: 50.0 mg/kg/injection, schedule: Q01DX009 (ip), vehicle: distilled water + Tween-80) is 100 % of control and 94 % of control; the T/C (dose: 100.0 mg/kg/injection, schedule: Q01DX009 (ip), vehicle: distilled water + Tween-80) was 100 % of control and 95 % of control; the T/C (dose: 200.0 mg/kg/injection, schedule: Q01DX009 (ip), vehicle: distilled water + Tween-80) was 100 % of control and 97 % of control; the T/C (dose: 400.0 mg/kg/injection, schedule: Q01DX009 (ip), vehicle: distilled water + Tween-80) was 100 % of control and 109 % of control.
As to `CC(C#N)(S(C)(=O)=O)S(=O)(=O)c1ccccc1` (configuration not stated), the T/C reads like this: (dose: 1.56 mg/kg/injection, schedule: Q01DX001 (ip), vehicle: saline with Tween-80) 96 % of control; (dose: 3.12 mg/kg/injection, schedule: Q01DX001 (ip), vehicle: saline with Tween-80) 99 % of control; (dose: 6.25 mg/kg/injection, schedule: Q01DX001 (ip), vehicle: saline with Tween-80) 102 % of control.
Consider `COC(=O)C1(F)C(=O)NC(=O)NC1OC` (configuration not stated), for which the T/C is 117 % of control (dose: 30.0 mg/kg/injection, schedule: Q04DX002 (ip), vehicle: Klucel (hydroxypropylcellulose) (HPC)); 118 % of control and 123 % of control (dose: 60.0 mg/kg/injection, schedule: Q04DX002 (ip), vehicle: Klucel (hydroxypropylcellulose) (HPC)); 157 % of control (dose: 240.0 mg/kg/injection, schedule: Q04DX002 (ip), vehicle: Klucel (hydroxypropylcellulose) (HPC)); 164 % of control (dose: 480.0 mg/kg/injection, schedule: Q04DX002 (ip), vehicle: Klucel (hydroxypropylcellulose) (HPC)).
In the case of `C(=Nc1cccc2ccccc12)Nc1cccc2ccccc12.[Cu+2]`, the T/C was 96 % of control under setting [1], 98 % of control under setting [2] and 95 % of control under setting [6].
Take `COc1cc([C@H]2c3cc4c(cc3CC3COC(=O)[C@@H]32)OCO4)cc(Br)c1O` (some centres not stated): the T/C is 101 % of control (dose: 15.0 mg/kg/injection, schedule: Q01DX005 (ip), vehicle: saline with Tween-80); 101 % of control (dose: 30.0 mg/kg/injection, schedule: Q01DX005 (ip), vehicle: saline with Tween-80); 99 % of control and 104 % of control under setting [3]; 110 % of control under setting [4]; 110 % of control under setting [5].
`O=C1CCC(c2nc3ccccc3[nH]2)N1Cc1csc(-c2ccccc2)n1` (configuration not stated): the T/C by setting is: under setting [3], 98 % of control; under setting [4], 93 % of control; under setting [5], 88 % of control.
Take `O=c1nc(-c2ccccc2)cc(CCc2ccccc2)[nH]1`: the T/C under setting [8] is 90 % of control, the T/C under setting [9] was 89 % of control and the T/C under setting [10] is 102 % of control.
Turning to `OC1c2cc(Cl)cc(Cl)c2OC2(N3CCCC3)CCCCC12` (configuration not stated), the T/C is 100 % of control under setting [1], 96 % of control under setting [2] and 102 % of control under setting [6].
The matching figures for `Cc1cc(Cl)ccc1S(=O)(=O)F`: 113 % of control, 113 % of control and 98 % of control.
Take `COc1ccc(B(C)N2CCCCC2C)cc1` (configuration not stated): the T/C was 102 % of control under setting [8], 100 % of control under setting [9] and 98 % of control under setting [10].
Regarding `O=[N+]([O-])c1ccc(NN=C2CCCCC2)c([N+](=O)[O-])c1`, the T/C by setting is: under setting [7], 103 % of control; (dose: 50.0 mg/kg/injection, schedule: Q04DX003 (ip), vehicle: Klucel (hydroxypropylcellulose) (HPC)) 104 % of control; (dose: 100.0 mg/kg/injection, schedule: Q04DX003 (ip), vehicle: Klucel (hydroxypropylcellulose) (HPC)) 105 % of control; (dose: 200.0 mg/kg/injection, schedule: Q04DX003 (ip), vehicle: Klucel (hydroxypropylcellulose) (HPC)) 112 % of control.
For `Cc1ccc(NC(=O)Oc2ccc(Cl)cc2)c([N+](=O)[O-])c1`, the T/C was 109 % of control under setting [1], 100 % of control under setting [2] and 105 % of control under setting [6].
